According to ChEMBL document CHEMBL1150172, “Sodium 1-(12-hydroxy)octadecanyl sulfate, an MMP2 inhibitor, isolated from a tunicate of the family Polyclinidae” (J Nat Prod, 2002):

Target: 72 kDa type IV collagenase (Homo sapiens, UniProt P08253)
Assay: Inhibition of recombinant MMP2

Chain of 72 kDa type IV collagenase (P08253 whole entry): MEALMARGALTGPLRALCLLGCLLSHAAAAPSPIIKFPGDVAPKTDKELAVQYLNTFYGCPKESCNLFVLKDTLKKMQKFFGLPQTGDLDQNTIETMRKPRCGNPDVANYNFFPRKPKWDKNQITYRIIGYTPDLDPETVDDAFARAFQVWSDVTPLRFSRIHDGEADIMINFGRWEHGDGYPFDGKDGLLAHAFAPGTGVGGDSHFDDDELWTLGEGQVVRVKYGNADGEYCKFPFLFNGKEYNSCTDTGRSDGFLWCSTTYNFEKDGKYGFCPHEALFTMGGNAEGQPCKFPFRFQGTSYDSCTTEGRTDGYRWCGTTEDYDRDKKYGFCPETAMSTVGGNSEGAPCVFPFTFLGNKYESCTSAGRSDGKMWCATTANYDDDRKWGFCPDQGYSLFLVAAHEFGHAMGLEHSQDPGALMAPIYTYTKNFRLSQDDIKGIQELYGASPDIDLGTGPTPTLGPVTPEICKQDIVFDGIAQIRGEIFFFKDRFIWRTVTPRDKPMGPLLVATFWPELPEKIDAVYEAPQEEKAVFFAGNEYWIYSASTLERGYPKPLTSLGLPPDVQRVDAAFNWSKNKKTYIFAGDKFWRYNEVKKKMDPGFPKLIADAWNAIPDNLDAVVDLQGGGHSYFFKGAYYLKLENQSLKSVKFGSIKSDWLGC

Compound `CCCCCCC(O)CCCCCCCCCCCOS(=O)(=O)O` (stereo unspecified) has an IC50 of 23.2 µM.
